# Experimental data reported in article PMC3596305, “Escherichia coli NemA Is an Efficient Chromate Reductase That Can Be Biologically Immobilized to Provide a Cell Free System for Remediation of Hexavalent Chromium” (PLoS ONE, 2013).
# Test system: T1, KefF_Pa
# T1 construct: gene kefF
# Experiment: diphenylcarbazide Cr(VI) assay, Lineweaver-Burk
# Format: biochemical
# Conditions: 1 mM NADH, 50 mM Tris-Cl pH 7.0, 22°C; read-out: KM (μM) ^b
# From the text: diphenylcarbazide Cr(VI) assay, Lineweaver-Burk on KefF_Pa
smiles,measurement,value
[O]=[Cr](=[O])([OH])[OH] [Cr(VI)],Km,140 µM
